Test system: lac repressor/operator system controlling plastome-encoded smGFP
Assay: Chemical induction of plastid GFP transgene expression by spraying a transplastomic tobacco plant with IPTG (Western blot)
Format: in vivo, Nicotiana tabacum
Method: FIG. 2: Immunological detection of GFP expression after induction with IPTG. • A) Plastid transformant 557-1 containing the smGFP gene under the control of the 16S-lac3 promoter and the lacl gene (transformation vector plCF1050-1), was analyzed for its GFP content by Western blotting. For the uninduced sample (−), a young leaf of a ca. 7 cm high plant was removed before spraying the plant with a 1 mM IPTG solution. For the induced sample (+), the next youngest leaf was cut four days after spraying. The amount of total soluble protein loaded on the gel is given on the top of the lanes. • B) Lower amounts of protein of the induced sample shown in A were loaded on the gel in order to allow quantification in comparison with the uninduced sample. In addition, protein from further leaves that were cut seven days after spraying was loaded. Leaf a was the next youngest leaf, leaf b an older leaf. Compared with a GFP standard, the amount of GFP in the first lane is in the range of 15 to 20 ng.
Tobacco seeds (Nicotiana tabacum cv. petite havana) were surface sterilized (1 min in 70% ethanol, 10 min in 5% Dimanin C, Bayer, Leverkusenr, Germany), washed 3 times for 10 min in sterile H2O and put on SCN-medium (Dovzhenko et al., 1998). Plants were grown at 25° C. in a 16 h light/8 h dark cycle (0.5-1 W/m^2 Osram L85W/25 Universal-White fluorescent lamps). Protoplast isolation was made according to Dovzhenko et al. (1998). Transformation using polyethyleneglycol (PEG) was performed as described in Koop et al. (1996), and alginate embedding according to Dovzhenko et al. (1998). After one week of culture in liquid medium, cells were transferred to agar-solidified RMOP-medium (Svab et al., 1990) containing 25 μg/ml kanamycin to select for transformants. Green regenerates were retrieved after […] and transferred to individual plates. In order to achieve homoplastomy, the individual lines were subjected to repeated cycles of shoot generation by cutting small leaf pieces which form new regenerates on RMOP-medium with 15 μg/ml kanamycin. Rooting of selected regenerates was done on SCN-medium containing 15 μg/ml spectinomycin. […]
A transplastomic plant generated with plCF10501 was grown on SCN-medium to a height of ca. 7 cm. […] After four and seven days, respectively, the next youngest leaf was cut off and also analyzed. […] Protein quantification was made according to the Bradford method with RotiQuant solution. Proteins were separated on a 15% polyacrylamide gel and transferred to nitrocellulose membrane, and GFP was detected immunologically using the ECL method (primary antibody directed against a recombinant protein corresponding to GFP from A. victoria; Santa Cruz Biotechnology).

CC(C)S[C@@H]1O[C@H](CO)[C@H](O)[C@H](O)[C@H]1O [IPTG, isopropyl-D-thiogalactopyranoside]
amount of GFP in the first lane compared with a GFP standard (FIG. 2B, first lane, Western blot of plastid transformant 557-1 sprayed with 1 mM IPTG): 15 to 20 ng
green fluorescence of leaves (after spraying with 1 mM IPTG, leaves irradiated with ultraviolet/blue light): increase in green fluorescence
amount of GFP in the leaves (plant sprayed with ca. 1 ml of 1 mM IPTG, leaf cut seven days after spraying, Western blot, FIG. 2): a further increase could be observed
increase of the amount of GFP in the leaves (plant sprayed with ca. 1 ml of 1 mM IPTG, next youngest leaf cut four days after spraying vs leaf cut before spraying, Western blot, FIG. 2): about 10 fold

Reference: US20070016983A1, “Controlling gene expressions in plastids” (Icon Genetics AG, priority 2003, published 2007)
